Experiment [1] relates to Plasmopara viticola. Put plainly: Antisporulant activity against vine downy mildew (PVA). Type of experiment: in vivo. The following applies: vine leaves, antisporulant foliar spray, 600 ppm, 750 l/ha. The method in brief:
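Cabernet Sauvignon vines (~8 cm) inoculated on lower leaf surfaces with 5×10^4 zoosporangia/ml, held 24 h at 21° C high humidity then 24 h glasshouse. Infected leaves sprayed underside with 600 ppm compound in 1:1 water/acetone, 0.04% Tween 20, 750 l/ha; 96 h glasshouse, 24 h humidity. Sporulating leaf area rated versus control.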

Experiment [2] concerns Alternaria solani. Put plainly: Activity against tomato early blight (AS). The class given is in vivo. The following applies: Table VI; tomato seedlings, contact prophylactic foliar spray, 4 days. An outline of the steps:
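Foliar contact prophylactic spray on tomato seedlings (cv Outdoor Girl, second true leaf expanded) in acetone/water 50:50 with 0.04% Tween 20; 24 h at 20° C, 40% R.H., then inoculation with 10^4 spores/ml A. solani conidia. Kept moist at 21° C; lesion cover rated 4 days post-inoculation against untreated or diluent-sprayed controls.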

Experiment [3] deals with Venturia inaequalis. Description: Activity against apple scab in-vitro (VII). The class given is cell-based. The note with it: 10 ppm, 10 days, 20° C., mycelial growth. The method in brief:
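Compound in acetone was tested at 10 ppm final in half-strength Potato Dextrose Broth inoculated with V. inaequalis mycelial fragments and spores at 5×10^4 propagules/ml. After 10 days at 20° C, mycelial growth was rated against untreated or diluent controls.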

The test system of experiment [4] is Pyricularia oryzae. Type of experiment: in vivo. The note with it: rice seedlings, direct therapeutic foliar spray, 600 ppm, 4-5 days.
The test system of experiment [5] is Rhizoctonia solani. Put plainly: Activity against Rhizoctonia in-vitro (RSI). Type of experiment: cell-based. The note with it: 10 ppm, 10 days, 20° C., mycelial growth. The method in brief:
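R. solani mycelial fragments (5×10^4/ml) in half-strength Potato Dextrose Broth with compound added from acetone to 10 ppm final. Mycelial growth assessed after 10 days at 20° C, rated against untreated or diluent control.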

The test system of experiment [6] is Erysiphe graminis f.sp. hordei. Description: Direct protectant activity against barley powdery mildew (EGP). The following applies: direct protectant foliar spray, 8 days. The class given is in vivo. An outline of the steps: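 Barley seedlings (cv Golden Promise, single-leaf stage) were foliar-sprayed, held 24 h at 18 °C/40% RH, then dusted with mildew conidia. After 8 days at 18 °C/40% RH, sporulating leaf area was scored as a rating against untreated or diluent-sprayed controls.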

In experiment [7] the test system is Botrytis cinerea. Put plainly: Direct protectant activity against broad bean grey mould (BCB). Type of experiment: in vivo. The note with it: direct protectant foliar spray, 600 ppm, 4 days. The method in brief:
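Broad bean plants (cv The Sutton, two leaf pairs) sprayed on upper leaf surfaces at 600 ppm, then inoculated 24 h later with 10^6 conidia/ml. Kept 4 days at 22 °C, high humidity; disease control rated from % leaf area with lesions against untreated or diluent controls.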

In experiment [8] the test system is Erysiphe graminis f.sp. hordei. Put plainly: Activity against barley powdery mildew, direct therapeutic (EGT). The note with it: direct therapeutic foliar spray, 600 ppm, up to 7 days. The class given is in vivo. The method in brief: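 Barley seedlings (cv. Golden Promise, single-leaf stage) were dusted with mildew conidia one day before a therapeutic foliar spray of 600 ppm compound. Plants were kept at 18 °C and 40% humidity for up to 7 days, and sporulating leaf area was rated against untreated or diluent-sprayed controls.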

Experiment [9] has as its system Leptosphaeria nodorum. Description: Activity against wheat leafspot (LN). The following applies: direct therapeutic foliar spray, 600 ppm, 6-8 days. The class given is in vivo. An outline of the steps:
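Wheat cv Norman at single-leaf stage spray-inoculated with 1.5×10^6 conidia/ml, held 24 h at high humidity, then sprayed therapeutically with test compound at 600 ppm. Kept 6-8 days at 22° C, 70% humidity; lesion density per leaf rated against untreated or diluent-sprayed controls.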

Experiment [10] concerns Pseudocercosporella herpotrichoides. Description: Activity against wheat eyespot in-vitro (PHI). The class given is cell-based. The following applies: 10 ppm, 10 days, 20° C., mycelial growth. The method in brief:
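P. herpotrichoides mycelial fragments (5×10^4/ml) grown in half-strength PDB with compound at 10 ppm final, added from acetone. Incubated 10 days at 20 °C; mycelial growth rated against untreated or diluent controls.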

The subject of experiment [11] is Phytophthora infestans. The class given is in vivo. The note with it: tomato, direct protectant foliar spray.

As for `CC(C)(C)C1CCC2(CC1)CC(N1CCOCC1)CO2` (stereo not shown) [Compound 11], the “disease control rating PVA” value in experiment [1] is on record as 0 (less than 50% disease control). For the same compound, the “disease control rating AS” value in [2] is 0 (less than 50% disease control). In addition, the “disease control rating VII” value in [3] was 1 (about 50-80% disease control). Also, the “disease control rating PO” value in experiment [4] is recorded as 0 (less than 50% disease control). Moreover, the “disease control rating RSI” value in [5] is 0 (less than 50% disease control). In addition, the “disease control rating EGP” value in [6] was 2 (greater than 80% disease control). Moreover, the “disease control rating BCB” value in experiment [7] is recorded as 0 (less than 50% disease control). Further, the “disease control rating EGT” value in [8] was 0 (less than 50% disease control). Moreover, in experiment [9], the “disease control rating LN” value is recorded as 0 (less than 50% disease control). Also, the “disease control rating PHI” value in experiment [10] was 1 (about 50-80% disease control). Further, the “disease control rating PIP” value in experiment [11] is 0 (less than 50% disease control).

In the case of `CCCCN(CCCC)C1COC2(CCC(C(C)(C)C)CC2)C1` (stereo not shown) [Compound 12], the “disease control rating PVA” value in experiment [1] was 0 (less than 50% disease control). Besides, in experiment [2], the “disease control rating AS” value was 0 (less than 50% disease control). Moreover, in [3], the “disease control rating VII” value is on record as 2 (greater than 80% disease control). In [4], the “disease control rating PO” value is recorded as 0 (less than 50% disease control). The “disease control rating RSI” value in experiment [5] is on record as 0 (less than 50% disease control). Moreover, in experiment [6], the “disease control rating EGP” value is 2 (greater than 80% disease control). Moreover, the “disease control rating BCB” value in experiment [7] was 2 (greater than 80% disease control). Further, the “disease control rating EGT” value in experiment [8] is 2 (greater than 80% disease control). The “disease control rating LN” value in experiment [9] was 0 (less than 50% disease control). Also, the “disease control rating PHI” value in experiment [10] is recorded as 0 (less than 50% disease control). In addition, the “disease control rating PIP” value in experiment [11] was 0 (less than 50% disease control).

Take `CCCN(CCC)C1COC2(CCC(C(C)(C)C)CC2)C1` (stereo not shown) [Compound 13]: the “disease control rating PVA” value in experiment [1] is on record as 0 (less than 50% disease control). For the same compound, the “disease control rating AS” value in [2] was 0 (less than 50% disease control). Further, in [3], the “disease control rating VII” value is listed as 2 (greater than 80% disease control). Also, the “disease control rating PO” value in [4] is 0 (less than 50% disease control). For the same compound, in experiment [5], the “disease control rating RSI” value is given as 0 (less than 50% disease control). Moreover, in [6], the “disease control rating EGP” value is recorded as 2 (greater than 80% disease control). The “disease control rating BCB” value in experiment [7] is 0 (less than 50% disease control). For the same compound, the “disease control rating EGT” value in [8] is 2 (greater than 80% disease control). Further, the “disease control rating LN” value in experiment [9] is on record as 0 (less than 50% disease control). Besides, the “disease control rating PHI” value in experiment [10] was 0 (less than 50% disease control). Besides, the “disease control rating PIP” value in experiment [11] is 0 (less than 50% disease control).

Take `CCCCCCN(C)C1COC2(CCC(C(C)(C)C)CC2)C1` (stereo not shown) [Compound 14]: in [1], the “disease control rating PVA” value is recorded as 0 (less than 50% disease control). For the same compound, the “disease control rating AS” value in experiment [2] is 0 (less than 50% disease control). Also, the “disease control rating VII” value in [3] was 2 (greater than 80% disease control). The “disease control rating PO” value in experiment [4] is 0 (less than 50% disease control). Also, the “disease control rating RSI” value in experiment [5] was 1 (about 50-80% disease control). Also, the “disease control rating EGP” value in [6] is 2 (greater than 80% disease control). In experiment [7], the “disease control rating BCB” value was 0 (less than 50% disease control). In experiment [8], the “disease control rating EGT” value was 2 (greater than 80% disease control). The “disease control rating LN” value in experiment [9] was 1 (about 50-80% disease control). The “disease control rating PHI” value in [10] is listed as 2 (greater than 80% disease control). Also, the “disease control rating PIP” value in experiment [11] is recorded as 0 (less than 50% disease control).

On to `CC1CC(C)CN(C2COC3(CCC(C(C)(C)C)CC3)C2)C1` (stereo not shown) [Compound 15], for which, in [1], the “disease control rating PVA” value is 0 (less than 50% disease control). Also, the “disease control rating AS” value in experiment [2] is given as 0 (less than 50% disease control). Besides, the “disease control rating VII” value in [3] was 2 (greater than 80% disease control). Moreover, the “disease control rating PO” value in experiment [4] is on record as 0 (less than 50% disease control). In addition, in [5], the “disease control rating RSI” value is 0 (less than 50% disease control). Moreover, in experiment [6], the “disease control rating EGP” value is listed as 2 (greater than 80% disease control). The “disease control rating BCB” value in experiment [7] is 0 (less than 50% disease control). In experiment [8], the “disease control rating EGT” value is reported as 2 (greater than 80% disease control). In addition, the “disease control rating LN” value in experiment [9] was 0 (less than 50% disease control). The “disease control rating PHI” value in experiment [10] is 0 (less than 50% disease control). Besides, the “disease control rating PIP” value in experiment [11] is 0 (less than 50% disease control).

With `CC(C)(C)C1CCC2(CC1)CC(NC1CCCCC1)CO2` (stereo not shown) [Compound 16], the “disease control rating PVA” value in experiment [1] is reported as 0 (less than 50% disease control). Besides, in [2], the “disease control rating AS” value was 2 (greater than 80% disease control). Also, in experiment [3], the “disease control rating VII” value is reported as 2 (greater than 80% disease control). Further, the “disease control rating PO” value in experiment [4] is recorded as 0 (less than 50% disease control). Also, the “disease control rating RSI” value in [5] is recorded as 0 (less than 50% disease control). Moreover, the “disease control rating EGP” value in experiment [6] is given as 2 (greater than 80% disease control). For the same compound, in experiment [7], the “disease control rating BCB” value is 1 (about 50-80% disease control). Moreover, the “disease control rating EGT” value in experiment [8] is recorded as 2 (greater than 80% disease control). Besides, the “disease control rating LN” value in experiment [9] is reported as 1 (about 50-80% disease control). Besides, in [10], the “disease control rating PHI” value is 0 (less than 50% disease control). In addition, the “disease control rating PIP” value in experiment [11] is listed as 0 (less than 50% disease control).

Take `CC1CCCCN1C1COC2(CCC(C(C)(C)C)CC2)C1` (stereo not shown) [Compound 17]: in experiment [1], the “disease control rating PVA” value was 0 (less than 50% disease control). In addition, in experiment [2], the “disease control rating AS” value is listed as 0 (less than 50% disease control). Moreover, in experiment [3], the “disease control rating VII” value is 0 (less than 50% disease control). In experiment [4], the “disease control rating PO” value is listed as 0 (less than 50% disease control). Moreover, the “disease control rating RSI” value in [5] is reported as 0 (less than 50% disease control). For the same compound, the “disease control rating EGP” value in experiment [6] is listed as 2 (greater than 80% disease control). The “disease control rating BCB” value in [7] is 0 (less than 50% disease control). Also, the “disease control rating EGT” value in experiment [8] is recorded as 2 (greater than 80% disease control). Further, the “disease control rating LN” value in experiment [9] is recorded as 0 (less than 50% disease control). In addition, the “disease control rating PHI” value in [10] is recorded as 0 (less than 50% disease control). Besides, the “disease control rating PIP” value in experiment [11] is 0 (less than 50% disease control).

With `CC1CCCN(C2COC3(CCC(C(C)(C)C)CC3)C2)C1` (stereo not shown) [Compound 18], the “disease control rating PVA” value in experiment [1] is reported as 0 (less than 50% disease control). Moreover, the “disease control rating AS” value in experiment [2] is reported as 0 (less than 50% disease control). In addition, the “disease control rating VII” value in experiment [3] is on record as 1 (about 50-80% disease control). In [4], the “disease control rating PO” value is 0 (less than 50% disease control). Besides, the “disease control rating RSI” value in [5] is recorded as 0 (less than 50% disease control). In addition, the “disease control rating EGP” value in experiment [6] is 2 (greater than 80% disease control). The “disease control rating BCB” value in experiment [7] is listed as 0 (less than 50% disease control). Besides, in experiment [8], the “disease control rating EGT” value is recorded as 2 (greater than 80% disease control). The “disease control rating LN” value in experiment [9] was 1 (about 50-80% disease control). The “disease control rating PHI” value in experiment [10] is recorded as 0 (less than 50% disease control). In [11], the “disease control rating PIP” value is 0 (less than 50% disease control).

These data come from patent publication US5591741A, “Fungicidal spiroheterocyclic derivatives” (American Cyanamid Company, priority 1993, dated 1997).
